Reference: patent publication US20200246277A1, “Composition For Alleviating, Preventing Or Treating Premenstrual Syndrome, Containing, As Active Ingredient, Pinitol, D-Chiro-Inositol Or Analog Compound Thereof” (DY NATURAL CO., LTD., priority 2015, published 2020)
Entries after “also recorded” stand apart in the source; their conditions may differ.

Tested on: premenstrual syndrome
Assay: Blind test with questionnaire survey: alleviating effect on premenstrual syndrome, once a day for eight weeks
Type: in vivo, women
Conditions: for share of group with somewhat or significant alleviation of the main symptoms of premenstrual syndrome: administration group of 600 mg, across main symptoms; for share of group that answered alleviation in the main symptoms / share of group that did not feel changes in the main symptoms of premenstrual syndrome: administration group of 1,200 mg or 2,400 mg; for alleviation, percentage / alleviation, the number of people / complete alleviation, percentage / complete alleviation, the number of people / no change, percentage / no change, the number of people / significant alleviation, percentage / significant alleviation, the number of people: eight weeks; for effect on the main symptoms of premenstrual syndrome (dysmenorrhea, period of dysmenorrhea, coldness of hands and feet), in words: daily dose of 600 mg, 1,200 mg, and 2,400 mg
Text: 1. Evaluation of Administration of Pinitol or D-Chiro-Inositol to Female Subject Pinitol and D-chiro-inositol were purchased from Biosearch Life (Camino de Purchil, 66. 18004 Granada, Spain). Selected as experiment subjects were 80 normal women of reproductive age, that is, 80 women at the age of 25-40 who had neither skipped three or more cycles of menstruation, nor been administered with a contraceptive pill, and nor received a psychiatric treatment. Of them, 40 persons were classified into four groups of 10 which were then administered respectively with a placebo free of pinitol and having no pharmaceutical effects and with pinitol at three different doses. Likewise, the remaining 40 persons were equally divided into one placebo group and three experimental groups to which D-chiro-inositol was administered at three different doses, respectively. A blind test was conducted in which the placebo and pinitol or D-chiro-inositol was administered once a day for eight weeks. Pinitol or D-chiro-inositol was administered at daily doses of 600 mg, 1,200 mg, and 2,400 mg for eight weeks. A survey was made of the experimental subjects before and after the clinical test of placebo and pinitol or D-chiro-inositol to evaluate the alleviating effect of pinitol or D-chiro-inositol on premenstrual syndrome. 2. Survey In the present disclosure, the questionnaire that experimental subjects had completed with respect to the severity of premenstrual syndrome were analyzed. The experimental subjects evaluated the placebo, pinitol, or D-chiro-inositol for a pharmacological effect on premenstrual syndrome on the basis of four grades: complete alleviation, significant alleviation, somewhat alleviation, and no change for dysmenorrhea, a period of dysmenorrhea, and coldness of hands and feet. [table]

[1] = administration group of 1,200 mg
[2] = administration group of 2,400 mg
[3] = coldness of hands and feet, 600 mg a day
[4] = coldness of hands and feet, 1,200 mg a day
[5] = coldness of hands and feet, 2,400 mg a day
[6] = period of dysmenorrhea, 600 mg a day
[7] = period of dysmenorrhea, 1,200 mg a day
[8] = period of dysmenorrhea, 2,400 mg a day

With `O[C@H]1[C@H](O)[C@H](O)[C@@H](O)[C@H](O)[C@H]1O` [DCI, D-chiro-inositol] the “share of group with somewhat or significant alleviation of the main symptoms of premenstrual syndrome” value was 50-60%, the “share of group with complete alleviation of the main symptoms” value [1] was no less than 50% and the “share of group that answered alleviation in the main symptoms” value was 80-90%. For the same molecule, the “share of group that did not feel changes in the main symptoms of premenstrual syndrome” value was 10%, the “share of group with complete alleviation of the main symptoms” value [2] was 70-80% and the “alleviation, percentage” value [3] was 30.0%. For the same molecule, the “alleviation, the number of people” value [3] was 3 person, the “complete alleviation, percentage” value [3] was 0.0% and the “complete alleviation, the number of people” value [3] was 0 person. The “no change, percentage” value [3] was 50.0%, the “no change, the number of people” value [3] was 5 person and the “significant alleviation, percentage” value [3] was 20.0%. The “significant alleviation, the number of people” value [3] was 2 person, the “alleviation, percentage” value [4] was 20.0% and the “alleviation, the number of people” value [4] was 2 person. The “complete alleviation, percentage” value [4] was 50.0%, the “complete alleviation, the number of people” value [4] was 5 person and the “no change, percentage” value [4] was 10.0%. The “no change, the number of people” value [4] was 1 person, the “significant alleviation, percentage” value [4] was 20.0% and the “significant alleviation, the number of people” value [4] was 2 person. The “alleviation, percentage” value [5] was 0.0%, the “alleviation, the number of people” value [5] was 0 person and the “complete alleviation, percentage” value [5] was 80.0%. The “complete alleviation, the number of people” value [5] was 8 person, the “no change, percentage” value [5] was 10.0% and the “no change, the number of people” value [5] was 1 person. The “significant alleviation, percentage” value [5] was 10.0%, the “significant alleviation, the number of people” value [5] was 1 person and the “effect on the main symptoms of premenstrual syndrome (dysmenorrhea, period of dysmenorrhea, coldness of hands and feet), in words” value was “Significant reductions; also recorded: significantly alleviating”. For the same molecule, the “alleviation, percentage” value (dysmenorrhea, 600 mg a day) was 20.0%, the “alleviation, the number of people” value (dysmenorrhea, 600 mg a day) was 2 person and the “complete alleviation, percentage” value (dysmenorrhea, 600 mg a day) was 0.0%. For the same molecule, the “complete alleviation, the number of people” value (dysmenorrhea, 600 mg a day) was 0 person, the “no change, percentage” value (dysmenorrhea, 600 mg a day) was 40.0% and the “no change, the number of people” value (dysmenorrhea, 600 mg a day) was 4 person. The “significant alleviation, percentage” value (dysmenorrhea, 600 mg a day) was 40.0%, the “significant alleviation, the number of people” value (dysmenorrhea, 600 mg a day) was 4 person and the “alleviation, percentage” value (dysmenorrhea, 1,200 mg a day) was 20.0%. For the same molecule, the “alleviation, the number of people” value (dysmenorrhea, 1,200 mg a day) was 2 person, the “complete alleviation, percentage” value (dysmenorrhea, 1,200 mg a day) was 50.0% and the “complete alleviation, the number of people” value (dysmenorrhea, 1,200 mg a day) was 5 person. For the same molecule, the “no change, percentage” value (dysmenorrhea, 1,200 mg a day) was 0.0%, the “no change, the number of people” value (dysmenorrhea, 1,200 mg a day) was 0 person and the “significant alleviation, percentage” value (dysmenorrhea, 1,200 mg a day) was 30.0%. For the same molecule, the “significant alleviation, the number of people” value (dysmenorrhea, 1,200 mg a day) was 3 person, the “alleviation, percentage” value (dysmenorrhea, 2,400 mg a day) was 0.0% and the “alleviation, the number of people” value (dysmenorrhea, 2,400 mg a day) was 0 person. For the same molecule, the “complete alleviation, percentage” value (dysmenorrhea, 2,400 mg a day) was 90.0%, the “complete alleviation, the number of people” value (dysmenorrhea, 2,400 mg a day) was 9 person and the “no change, percentage” value (dysmenorrhea, 2,400 mg a day) was 0.0%. For the same molecule, the “no change, the number of people” value (dysmenorrhea, 2,400 mg a day) was 0 person, the “significant alleviation, percentage” value (dysmenorrhea, 2,400 mg a day) was 10.0% and the “significant alleviation, the number of people” value (dysmenorrhea, 2,400 mg a day) was 1 person. For the same molecule, the “alleviation, percentage” value [6] was 20.0%, the “alleviation, the number of people” value [6] was 2 person and the “complete alleviation, percentage” value [6] was 0.0%. The “complete alleviation, the number of people” value [6] was 0 person, the “no change, percentage” value [6] was 50.0% and the “no change, the number of people” value [6] was 5 person. For the same molecule, the “significant alleviation, percentage” value [6] was 30.0%, the “significant alleviation, the number of people” value [6] was 3 person and the “alleviation, percentage” value [7] was 10.0%. The “alleviation, the number of people” value [7] was 1 person, the “complete alleviation, percentage” value [7] was 60.0% and the “complete alleviation, the number of people” value [7] was 6 person. For the same molecule, the “no change, percentage” value [7] was 10.0%, the “no change, the number of people” value [7] was 1 person and the “significant alleviation, percentage” value [7] was 20.0%. For the same molecule, the “significant alleviation, the number of people” value [7] was 2 person, the “alleviation, percentage” value [8] was 0.0% and the “alleviation, the number of people” value [8] was 0 person. The “complete alleviation, percentage” value [8] was 80.0%, the “complete alleviation, the number of people” value [8] was 8 person and the “no change, percentage” value [8] was 0.0%. For the same molecule, the “no change, the number of people” value [8] was 0 person, the “significant alleviation, percentage” value [8] was 20.0% and the “significant alleviation, the number of people” value [8] was 2 person.

In the case of `CO[C@H]1[C@H](O)[C@@H](O)[C@@H](O)[C@H](O)[C@@H]1O` [Pinitol, pinitol], the “share of group with somewhat or significant alleviation of the main symptoms of premenstrual syndrome” value was 50-60%, the “share of group with complete alleviation of the main symptoms” value [1] was no less than 50% and the “share of group that answered alleviation in the main symptoms” value was 80-90%. For the same molecule, the “share of group that did not feel changes in the main symptoms of premenstrual syndrome” value was 10%, the “share of group with complete alleviation of the main symptoms” value [2] was 70-80% and the “alleviation, percentage” value [3] was 40.0%. The “alleviation, the number of people” value [3] was 4 person, the “complete alleviation, percentage” value [3] was 0.0% and the “complete alleviation, the number of people” value [3] was 0 person. For the same molecule, the “no change, percentage” value [3] was 50.0%, the “no change, the number of people” value [3] was 5 person and the “significant alleviation, percentage” value [3] was 10.0%. The “significant alleviation, the number of people” value [3] was 1 person, the “alleviation, percentage” value [4] was 10.0% and the “alleviation, the number of people” value [4] was 1 person. For the same molecule, the “complete alleviation, percentage” value [4] was 40.0%, the “complete alleviation, the number of people” value [4] was 4 person and the “no change, percentage” value [4] was 20.0%. The “no change, the number of people” value [4] was 2 person, the “significant alleviation, percentage” value [4] was 30.0% and the “significant alleviation, the number of people” value [4] was 3 person. For the same molecule, the “alleviation, percentage” value [5] was 10.0%, the “alleviation, the number of people” value [5] was 1 person and the “complete alleviation, percentage” value [5] was 70.0%. For the same molecule, the “complete alleviation, the number of people” value [5] was 7 person, the “no change, percentage” value [5] was 10.0% and the “no change, the number of people” value [5] was 1 person. The “significant alleviation, percentage” value [5] was 10.0%, the “significant alleviation, the number of people” value [5] was 1 person and the “effect on the main symptoms of premenstrual syndrome (dysmenorrhea, period of dysmenorrhea, coldness of hands and feet), in words” value was “Significant reductions; also recorded: significantly alleviating”. For the same molecule, the “alleviation, percentage” value (dysmenorrhea, 600 mg a day) was 30.0%, the “alleviation, the number of people” value (dysmenorrhea, 600 mg a day) was 3 person and the “complete alleviation, percentage” value (dysmenorrhea, 600 mg a day) was 0.0%. For the same molecule, the “complete alleviation, the number of people” value (dysmenorrhea, 600 mg a day) was 0 person, the “no change, percentage” value (dysmenorrhea, 600 mg a day) was 40.0% and the “no change, the number of people” value (dysmenorrhea, 600 mg a day) was 4 person. The “significant alleviation, percentage” value (dysmenorrhea, 600 mg a day) was 30.0%, the “significant alleviation, the number of people” value (dysmenorrhea, 600 mg a day) was 3 person and the “alleviation, percentage” value (dysmenorrhea, 1,200 mg a day) was 10.0%. The “alleviation, the number of people” value (dysmenorrhea, 1,200 mg a day) was 1 person, the “complete alleviation, percentage” value (dysmenorrhea, 1,200 mg a day) was 60.0% and the “complete alleviation, the number of people” value (dysmenorrhea, 1,200 mg a day) was 6 person. For the same molecule, the “no change, percentage” value (dysmenorrhea, 1,200 mg a day) was 10.0%, the “no change, the number of people” value (dysmenorrhea, 1,200 mg a day) was 1 person and the “significant alleviation, percentage” value (dysmenorrhea, 1,200 mg a day) was 20.0%. For the same molecule, the “significant alleviation, the number of people” value (dysmenorrhea, 1,200 mg a day) was 2 person, the “alleviation, percentage” value (dysmenorrhea, 2,400 mg a day) was 0.0% and the “alleviation, the number of people” value (dysmenorrhea, 2,400 mg a day) was 0 person. For the same molecule, the “complete alleviation, percentage” value (dysmenorrhea, 2,400 mg a day) was 80.0%, the “complete alleviation, the number of people” value (dysmenorrhea, 2,400 mg a day) was 8 person and the “no change, percentage” value (dysmenorrhea, 2,400 mg a day) was 0.0%. For the same molecule, the “no change, the number of people” value (dysmenorrhea, 2,400 mg a day) was 0 person, the “significant alleviation, percentage” value (dysmenorrhea, 2,400 mg a day) was 20.0% and the “significant alleviation, the number of people” value (dysmenorrhea, 2,400 mg a day) was 2 person. The “alleviation, percentage” value [6] was 20.0%, the “alleviation, the number of people” value [6] was 2 person and the “complete alleviation, percentage” value [6] was 0.0%. The “complete alleviation, the number of people” value [6] was 0 person, the “no change, percentage” value [6] was 50.0% and the “no change, the number of people” value [6] was 5 person. The “significant alleviation, percentage” value [6] was 30.0%, the “significant alleviation, the number of people” value [6] was 3 person and the “alleviation, percentage” value [7] was 20.0%. For the same molecule, the “alleviation, the number of people” value [7] was 2 person, the “complete alleviation, percentage” value [7] was 50.0% and the “complete alleviation, the number of people” value [7] was 5 person. For the same molecule, the “no change, percentage” value [7] was 10.0%, the “no change, the number of people” value [7] was 1 person and the “significant alleviation, percentage” value [7] was 20.0%. The “significant alleviation, the number of people” value [7] was 2 person, the “alleviation, percentage” value [8] was 0.0% and the “alleviation, the number of people” value [8] was 0 person. For the same molecule, the “complete alleviation, percentage” value [8] was 80.0%, the “complete alleviation, the number of people” value [8] was 8 person and the “no change, percentage” value [8] was 0.0%. The “no change, the number of people” value [8] was 0 person, the “significant alleviation, percentage” value [8] was 20.0% and the “significant alleviation, the number of people” value [8] was 2 person.
